In publication PMC11539244, “Relative inhibitory activities of newly developed diazabicyclooctanes, boronic acid derivatives, and penicillin-based sulfone β-lactamase inhibitors against broad-spectrum AmpC β-lactamases” (Antimicrobial Agents and Chemotherapy, 2024):
Read-outs that look alike come from different tables or passages of the source.

Tests used:
[1] = test system: E. coli ATCC 25922; assay: MIC by broth microdilution, E. coli ATCC 25922; assay type: cell-based; details: Escherichia coli, ATCC25922, E. coli ATCC 25922, β-lactam alone or with inhibitor at fixed conc.: CLA 2 µg/mL, TZB, AVI, REL, NAC, ZID, DUR, TAN 4 µg/mL, VAB, XER, EMT 8 µg/mL, read-out: MICs
Method: (§1) MICs were determined in triplicate by broth microdilution (BMD) for CAZ and AMX, as well as their combinations with each β-lactamase inhibitor. CAZ, AMX, and CLA were purchased from Sigma-Aldrich (St. Louis, MO, USA). All others inhibitors (TAZ HY-W009168, AVI HY-14879, REL HY-16752, VAB HY-19930, NAC HY-109008, ZID HY-120859, TAN HY-109124, XER HY-136072, DUR HY-117974, EMT HY-103095) were purchased from MedChem Express (Luzern, Switzerland). The concentration of each β-lactamase inhibitor was chosen as the concentration used in the respective BL/BLI combination under development or commercially available, according to EUCAST or CLSI ([18], [19]). […] BMD assays were performed in cation-adjusted Mueller-Hinton (MH) broth (Bio-Rad, Marnes-la-Coquette, France) for all antibiotics or antibiotic combinations listed above, according to the EUCAST guidelines ([20]).

[2] = test system: E. coli ADC-50 (E. coli TOP10 recombinant strain); assay: microbe, parasite or virus in culture; assay type: cell-based, Escherichia coli
Method: (§2) In order to assess the relative inhibitory activities of those BLI against AmpC β-lactamases, the corresponding blaampC genes without the original promoter sequences were amplified by PCR with specific primers, and corresponding amplicons were cloned into plasmid pUCp24, as described previously ([12], [13]). […] Cultures of E. coli TOP10 harboring recombinant plasmids and therefore producing the different AmpC tested were grown overnight at 37°C in Luria-Bertani agar medium containing amoxicillin (AMX) (50 µg/mL). The activity of the following acquired class C β-lactamases could therefore be evaluated, namely, ACC-1 (originally from Hafnia spp.), FOX-5 (from Aeromonas allosaccharophila), CMY-2 and CMY-42 (from Citrobacter spp.), DHA-1 (from Morganella morganii), ACT-7 and ACT-17 (from Enterobacter asburiae), MIR-17 (from Enterobacter roggenkampii), MOX-2 (from Aeromonas caviae), and LAT-1 (from Citrobacter portucalensis) ([5]). […] Altogether, these enzymes were chosen as representatives of clinically relevant class C β-lactamases being sources of intrinsic or acquired resistance to broad-spectrum β-lactams among most of the commonly identified Gram-negative bacteria in clinical practice.
as §1

[3] = test system: E. coli DHA-1 (E. coli TOP10 recombinant strain); assay: microbe, parasite or virus in culture; assay type: cell-based; details: Escherichia coli, read-out: MICs
Method: as §2, §1

[4] = test system: E. coli LAT-1 (E. coli TOP10 recombinant strain); assay: microbe, parasite or virus in culture; assay type: cell-based; details: Escherichia coli, read-out: MICs
Method: as §2, §1

[5] = test system: E. coli YRC-1 (E. coli TOP10 recombinant strain); assay: microbe, parasite or virus in culture; assay type: cell-based; details: Escherichia coli, read-out: MICs
Method: as §2, §1

[6] = test system: E. coli CMY-2 (E. coli TOP10 recombinant strain); assay: microbe, parasite or virus in culture; assay type: cell-based; details: Escherichia coli, read-out: MICs
Method: as §2, §1

[7] = test system: E. coli CMY-42 (E. coli TOP10 recombinant strain); assay: microbe, parasite or virus in culture; assay type: cell-based; details: Escherichia coli, read-out: MICs
Method: as §2, §1

[8] = test system: E. coli MIR-17 (E. coli TOP10 recombinant strain); assay: microbe, parasite or virus in culture; assay type: cell-based; details: Escherichia coli, read-out: MICs
Method: as §2, §1

[9] = test system: E. coli ACC-1 (E. coli TOP10 recombinant strain); assay: microbe, parasite or virus in culture; assay type: cell-based; details: Escherichia coli, read-out: MICs
Method: as §2, §1

[10] = test system: E. coli PDC-1 (E. coli TOP10 recombinant strain); assay: microbe, parasite or virus in culture; assay type: cell-based; details: Escherichia coli, read-out: MICs
Method: as §2, §1

[11] = test system: E. coli Ear-1 (E. coli TOP10 recombinant strain); assay: microbe, parasite or virus in culture; assay type: cell-based; details: Escherichia coli, read-out: MICs
Method: as §2, §1

[12] = test system: E. coli ACT-17 (E. coli TOP10 recombinant strain); assay: microbe, parasite or virus in culture; assay type: cell-based; details: Escherichia coli, read-out: MICs
Method: as §2, §1

[13] = test system: E. coli TOP10; assay: microbe, parasite or virus in culture; assay type: cell-based; details: Escherichia coli
Method: as §2, §1

[14] = test system: E. coli PDC-382 (E. coli TOP10 recombinant strain); assay: microbe, parasite or virus in culture; assay type: cell-based; details: Escherichia coli, read-out: MICs
Method: as §2, §1

[15] = test system: E. coli SRT-2 (E. coli TOP10 recombinant strain); assay: microbe, parasite or virus in culture; assay type: cell-based; details: Escherichia coli, read-out: MICs
Method: as §2, §1

[16] = test system: E. coli FOX-5 (E. coli TOP10 recombinant strain); assay: microbe, parasite or virus in culture; assay type: cell-based; details: Escherichia coli, read-out: MICs
Method: as §2, §1

[17] = test system: E. coli MOX-2 (E. coli TOP10 recombinant strain); assay: microbe, parasite or virus in culture; assay type: cell-based; details: Escherichia coli, read-out: MICs
Method: as §2, §1

[18] = test system: E. coli PDC-5 (E. coli TOP10 recombinant strain); assay: microbe, parasite or virus in culture; assay type: cell-based; details: Escherichia coli, read-out: MICs
Method: as §2, §1

[19] = test system: E. coli ACT-7 (E. coli TOP10 recombinant strain); assay: microbe, parasite or virus in culture; assay type: cell-based; details: Escherichia coli, read-out: MICs
Method: as §2, §1

[20] = target: ADC-50 (Acinetobacter baumannii, UniProt Q6DRA1); assay: IC50 of β-lactamase inhibitors, crude extract, ADC-50; assay type: biochemical, A. baumannii
[21] = target: YRC-1 (Yersinia ruckeri, UniProt Q20I87); assay: IC50 of β-lactamase inhibitors, crude extract, YRC-1; assay type: biochemical
Sequence of YRC-1 (Q20I87 entry or part of it): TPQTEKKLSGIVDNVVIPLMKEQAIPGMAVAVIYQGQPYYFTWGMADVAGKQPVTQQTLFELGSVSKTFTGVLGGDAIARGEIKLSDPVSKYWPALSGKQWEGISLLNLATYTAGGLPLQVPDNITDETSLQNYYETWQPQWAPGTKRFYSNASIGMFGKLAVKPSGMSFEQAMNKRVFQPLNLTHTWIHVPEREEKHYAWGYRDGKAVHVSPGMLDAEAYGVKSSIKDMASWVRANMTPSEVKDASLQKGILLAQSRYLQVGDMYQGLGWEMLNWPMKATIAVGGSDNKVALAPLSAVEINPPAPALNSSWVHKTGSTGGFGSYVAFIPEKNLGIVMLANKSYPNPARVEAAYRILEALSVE

[22] = target: MOX-2 (Aeromonas caviae, UniProt Q9L3G2); assay: IC50 of β-lactamase inhibitors, crude extract, MOX-2; assay type: biochemical
Sequence of MOX-2 (Q9L3G2 entry or part of it): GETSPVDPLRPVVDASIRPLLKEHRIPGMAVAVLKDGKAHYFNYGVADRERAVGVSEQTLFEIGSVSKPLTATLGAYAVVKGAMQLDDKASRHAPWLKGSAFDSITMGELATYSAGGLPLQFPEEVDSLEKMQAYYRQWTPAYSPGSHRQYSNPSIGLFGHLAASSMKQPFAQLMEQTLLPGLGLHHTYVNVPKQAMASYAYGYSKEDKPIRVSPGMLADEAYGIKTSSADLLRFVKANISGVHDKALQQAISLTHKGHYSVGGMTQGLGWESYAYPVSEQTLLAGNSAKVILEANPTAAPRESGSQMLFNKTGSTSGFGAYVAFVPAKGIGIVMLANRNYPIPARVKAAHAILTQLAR

[23] = target: LAT-1 (Citrobacter portucalensis, UniProt Q48443); assay: biochemical
Sequence of LAT-1 (Q48443 entry or part of it): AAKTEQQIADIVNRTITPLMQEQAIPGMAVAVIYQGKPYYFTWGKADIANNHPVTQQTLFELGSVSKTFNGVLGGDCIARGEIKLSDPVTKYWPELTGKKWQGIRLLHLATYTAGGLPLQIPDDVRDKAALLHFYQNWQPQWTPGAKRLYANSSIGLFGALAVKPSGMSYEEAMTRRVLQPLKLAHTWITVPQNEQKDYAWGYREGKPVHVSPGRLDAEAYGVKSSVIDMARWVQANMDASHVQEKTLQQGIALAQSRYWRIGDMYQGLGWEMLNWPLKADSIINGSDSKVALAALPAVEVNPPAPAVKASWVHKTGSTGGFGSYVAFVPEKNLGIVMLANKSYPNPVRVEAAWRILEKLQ

[24] = target: MIR-17; assay: IC50 of β-lactamase inhibitors, crude extract, MIR-17; assay type: biochemical, Enterobacter roggenkampii; details: crude extract of E. coli TOP10 recombinant strain, mean of triplicate
[25] = target: T1, CMY-42 (Klebsiella pneumoniae, UniProt Q48434, V231S); assay: biochemical; design: species or system Citrobacter spp.
T1 construct: made in house; host or cells: E. coli TOP10, plasmid pUCp24
T1 sequence (Q48434 21-381 V231S): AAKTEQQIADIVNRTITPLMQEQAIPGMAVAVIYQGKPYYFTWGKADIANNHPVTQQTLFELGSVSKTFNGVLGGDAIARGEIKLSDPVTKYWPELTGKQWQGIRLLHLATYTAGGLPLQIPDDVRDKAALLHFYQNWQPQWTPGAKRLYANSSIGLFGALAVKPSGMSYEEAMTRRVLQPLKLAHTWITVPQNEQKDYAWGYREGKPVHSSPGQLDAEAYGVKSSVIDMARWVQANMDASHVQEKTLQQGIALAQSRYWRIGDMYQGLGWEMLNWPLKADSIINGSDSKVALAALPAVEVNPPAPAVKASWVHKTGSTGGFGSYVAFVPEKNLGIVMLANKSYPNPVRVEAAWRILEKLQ

[26] = target: SRT-1 (Serratia marcescens, UniProt P18539); assay: IC50 of β-lactamase inhibitors, crude extract, SRT-1; assay type: biochemical; details: crude extract of E. coli TOP10 recombinant strain, mean of triplicate
Sequence of SRT-1 (P18539 22-376): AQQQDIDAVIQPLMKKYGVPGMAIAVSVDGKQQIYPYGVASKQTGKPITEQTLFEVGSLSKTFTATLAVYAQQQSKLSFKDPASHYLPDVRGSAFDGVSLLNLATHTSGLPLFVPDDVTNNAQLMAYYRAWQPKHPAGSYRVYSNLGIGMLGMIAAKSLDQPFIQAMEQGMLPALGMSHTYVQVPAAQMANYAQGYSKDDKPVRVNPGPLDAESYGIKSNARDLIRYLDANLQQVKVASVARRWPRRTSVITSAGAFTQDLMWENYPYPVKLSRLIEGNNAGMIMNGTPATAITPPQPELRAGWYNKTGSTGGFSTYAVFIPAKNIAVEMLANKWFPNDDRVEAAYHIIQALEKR

[27] = target: T2, PDC-1 (Pseudomonas aeruginosa, UniProt P24735); assay: biochemical; design: species or system P. aeruginosa
T2 construct: made in house; host or cells: E. coli TOP10, plasmid pUCp24
T2 sequence (P24735 27-397): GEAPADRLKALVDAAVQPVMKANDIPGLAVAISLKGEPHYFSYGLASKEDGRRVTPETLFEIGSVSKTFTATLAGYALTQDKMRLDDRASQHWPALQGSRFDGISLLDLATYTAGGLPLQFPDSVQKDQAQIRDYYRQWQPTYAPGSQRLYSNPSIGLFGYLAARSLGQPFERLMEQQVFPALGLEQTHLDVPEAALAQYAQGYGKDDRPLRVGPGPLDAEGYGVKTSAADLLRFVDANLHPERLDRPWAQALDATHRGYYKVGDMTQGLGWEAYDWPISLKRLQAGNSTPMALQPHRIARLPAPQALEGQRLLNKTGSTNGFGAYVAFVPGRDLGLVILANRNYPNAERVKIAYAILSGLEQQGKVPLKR

[28] = target: T3, CMY-2 (Klebsiella pneumoniae, UniProt Q48434); assay: biochemical; design: species or system Citrobacter spp.
T3 construct: made in house; host or cells: E. coli TOP10, plasmid pUCp24

[29] = target: ACT-7 (Enterobacter asburiae, UniProt B6V6L3); assay: biochemical
Sequence of ACT-7 (B6V6L3 entry or part of it): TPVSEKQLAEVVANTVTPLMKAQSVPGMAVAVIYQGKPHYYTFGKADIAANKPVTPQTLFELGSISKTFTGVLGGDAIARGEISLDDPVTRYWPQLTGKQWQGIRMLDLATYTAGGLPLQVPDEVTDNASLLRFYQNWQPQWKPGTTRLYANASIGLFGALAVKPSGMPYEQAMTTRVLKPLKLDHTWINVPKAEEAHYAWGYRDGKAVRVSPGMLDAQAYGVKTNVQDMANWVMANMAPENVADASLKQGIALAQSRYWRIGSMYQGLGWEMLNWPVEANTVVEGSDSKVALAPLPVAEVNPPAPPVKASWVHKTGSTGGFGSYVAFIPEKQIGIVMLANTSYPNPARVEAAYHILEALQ

[30] = target: Ear-1 (Klebsiella aerogenes, UniProt A0A0H3FRQ3); assay: IC50 of β-lactamase inhibitors, crude extract, Ear-1; assay type: biochemical
Sequence of Ear-1 (A0A0H3FRQ3 entry or part of it): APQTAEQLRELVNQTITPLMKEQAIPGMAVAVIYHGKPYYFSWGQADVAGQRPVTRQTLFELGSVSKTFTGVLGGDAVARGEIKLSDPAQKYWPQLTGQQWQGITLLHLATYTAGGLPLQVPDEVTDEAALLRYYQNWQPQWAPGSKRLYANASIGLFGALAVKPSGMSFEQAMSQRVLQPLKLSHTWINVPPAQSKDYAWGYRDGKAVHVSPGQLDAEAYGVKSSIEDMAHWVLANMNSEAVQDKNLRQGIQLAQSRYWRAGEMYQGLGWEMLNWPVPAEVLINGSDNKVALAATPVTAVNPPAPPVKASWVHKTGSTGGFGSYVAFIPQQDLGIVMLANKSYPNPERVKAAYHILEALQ

[31] = target: FOX-5 (Aeromonas allosaccharophila, UniProt Q9F4K3); assay: IC50 of β-lactamase inhibitors, crude extract, FOX-5; assay type: biochemical
Sequence of FOX-5 (Q9F4K3 entry or part of it): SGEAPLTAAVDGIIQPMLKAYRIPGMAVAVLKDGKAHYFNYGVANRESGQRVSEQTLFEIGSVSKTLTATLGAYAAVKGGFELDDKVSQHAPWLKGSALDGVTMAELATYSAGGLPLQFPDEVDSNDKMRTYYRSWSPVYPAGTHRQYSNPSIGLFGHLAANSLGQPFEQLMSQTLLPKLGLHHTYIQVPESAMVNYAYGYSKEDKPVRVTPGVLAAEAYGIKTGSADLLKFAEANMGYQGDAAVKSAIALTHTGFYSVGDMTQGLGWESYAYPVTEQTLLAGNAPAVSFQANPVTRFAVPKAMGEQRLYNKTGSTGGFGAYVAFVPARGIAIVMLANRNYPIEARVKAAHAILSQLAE

[32] = target: PDC-382 (Pseudomonas aeruginosa, UniProt P24735, T96I); assay: biochemical; design: species or system P. aeruginosa
Sequence of PDC-382 (P24735 27-397 T96I): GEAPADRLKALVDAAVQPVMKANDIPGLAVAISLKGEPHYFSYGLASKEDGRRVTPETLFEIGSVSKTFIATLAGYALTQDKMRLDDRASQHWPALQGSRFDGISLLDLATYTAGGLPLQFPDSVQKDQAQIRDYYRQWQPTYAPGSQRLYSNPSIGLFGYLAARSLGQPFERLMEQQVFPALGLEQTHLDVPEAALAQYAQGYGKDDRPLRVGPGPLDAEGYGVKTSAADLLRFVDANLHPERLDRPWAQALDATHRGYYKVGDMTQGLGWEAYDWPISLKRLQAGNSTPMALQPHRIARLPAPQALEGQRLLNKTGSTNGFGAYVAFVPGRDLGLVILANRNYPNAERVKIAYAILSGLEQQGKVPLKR

[33] = target: ACC-1 (Hafnia alvei, UniProt Q9XB24); assay: IC50 of β-lactamase inhibitors, crude extract, ACC-1; assay type: biochemical
Sequence of ACC-1 (Q9XB24 entry or part of it): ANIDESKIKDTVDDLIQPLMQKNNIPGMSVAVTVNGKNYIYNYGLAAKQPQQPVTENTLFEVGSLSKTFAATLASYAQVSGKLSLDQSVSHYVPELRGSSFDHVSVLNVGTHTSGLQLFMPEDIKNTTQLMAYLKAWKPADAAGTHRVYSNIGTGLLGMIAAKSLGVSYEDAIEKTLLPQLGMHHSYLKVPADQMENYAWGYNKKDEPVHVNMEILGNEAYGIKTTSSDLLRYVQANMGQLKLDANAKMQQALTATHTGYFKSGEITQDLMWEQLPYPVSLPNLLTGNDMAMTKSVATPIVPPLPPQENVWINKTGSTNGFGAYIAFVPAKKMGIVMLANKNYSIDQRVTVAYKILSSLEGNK

[34] = target: T4, PDC-5 (Pseudomonas aeruginosa, UniProt P24735, R79Q/T105A); assay: biochemical; design: species or system P. aeruginosa
T4 construct: made in house; host or cells: E. coli TOP10, plasmid pUCp24
T4 sequence (P24735 27-397 R79Q/T105A): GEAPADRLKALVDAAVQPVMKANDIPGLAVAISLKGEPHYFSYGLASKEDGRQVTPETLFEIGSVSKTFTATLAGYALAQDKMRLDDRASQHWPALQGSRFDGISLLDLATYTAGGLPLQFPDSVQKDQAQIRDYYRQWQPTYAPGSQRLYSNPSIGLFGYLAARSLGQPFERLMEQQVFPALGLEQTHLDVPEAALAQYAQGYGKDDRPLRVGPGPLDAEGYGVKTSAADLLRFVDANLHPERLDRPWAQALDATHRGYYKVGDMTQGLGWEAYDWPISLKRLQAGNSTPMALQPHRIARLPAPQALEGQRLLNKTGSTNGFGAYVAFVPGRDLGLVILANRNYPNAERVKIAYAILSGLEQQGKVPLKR

[35] = target: ACT-17 (Enterobacter asburiae, UniProt P05364); assay type: biochemical; details: crude extract of E. coli TOP10 recombinant strain, mean of triplicate
Sequence of ACT-17 (P05364 21-381): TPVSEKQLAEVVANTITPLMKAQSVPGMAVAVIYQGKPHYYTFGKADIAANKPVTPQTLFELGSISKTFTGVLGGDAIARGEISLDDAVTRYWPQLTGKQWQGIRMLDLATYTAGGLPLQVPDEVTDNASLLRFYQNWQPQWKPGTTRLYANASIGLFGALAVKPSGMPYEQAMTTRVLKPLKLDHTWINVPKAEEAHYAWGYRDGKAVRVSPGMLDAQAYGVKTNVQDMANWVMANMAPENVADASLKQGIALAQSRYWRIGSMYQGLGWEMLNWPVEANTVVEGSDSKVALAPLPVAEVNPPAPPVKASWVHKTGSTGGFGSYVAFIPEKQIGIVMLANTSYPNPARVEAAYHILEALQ

[36] = target: DHA-1 (Morganella morganii, UniProt P94958); assay: IC50 of β-lactamase inhibitors, crude extract, DHA-1; assay type: biochemical
[37] = ADC-50, crude extract of E. coli TOP10 recombinant strain, mean of triplicate
[38] = TOP10, E. coli TOP 10, β-lactamase inhibitor alone, read-out: MIC values of inhibitor alone

SMILES | IC50 [20, 37] [nM] | IC50 [21] [nM] | IC50 [22] [nM] | IC50 [23] [nM] | IC50 [24] [nM] | IC50 [25] [nM] | IC50 [26] [nM] | IC50 [27] [nM] | IC50 [28] [nM] | IC50 [29] [nM] | IC50 [30] [nM] | IC50 [31] [nM] | IC50 [32] [µM] | IC50 [33] [nM] | IC50 [34] [nM] | IC50 [35] [nM] | MIC [13, 38] [µg/mL] | IC50 [36] [nM] | inhibition of ADC-50 (in words) ([20]; ADC-50 of A. baumannii) | further results
CC1(C)S[C@@H]2[C@H](NC(=O)[C@H](N)c3ccc(O)cc3)C(=O)N2[C@H]1C(=O)O [Amoxicillin, amoxicillin] |  |  |  |  |  |  |  |  |  |  |  |  |  |  |  |  |  |  |  | MIC [1]: 4 µg/mL; MIC ([2]; Escherichia coli, read-out: MICs): 512 µg/mL; MIC [3]: 1020 µg/mL; MIC [4]: 512 µg/mL; MIC [5]: 512 µg/mL; MIC [6]: > 1020 µg/mL; MIC [7]: 1020 µg/mL; MIC [8]: 128 µg/mL; MIC [9]: 32 µg/mL; MIC [10]: 16 µg/mL; MIC [11]: > 1020 µg/mL; MIC [12]: 512 µg/mL; MIC ([13]; TOP10, read-out: MICs): 1 µg/mL; MIC [14]: 16 µg/mL; MIC [15]: 128 µg/mL; MIC [16]: 8 µg/mL; MIC [17]: 8 µg/mL; MIC [18]: 16 µg/mL; MIC [19]: 1020 µg/mL
CC1=C[C@@H]2CN(C(=O)N2OS(=O)(=O)O)[C@@H]1C(N)=O [Durlobactam, durlobactam] | 170 | 5 | 55 | 5 | 5 | 11 | 22 | 9 | 4 | 4 | 6 | 22 | 0.1 | 5 | 13 | 3 | 0.125 | 4 |  | IC50 ([20]; read-out: IC50 value, ADC-50 of A. baumannii): 0.17 nM
NCCONC(=O)[C@@H]1CC[C@@H]2CN1C(=O)N2OS(=O)(=O)O [Nacubactam, nacubactam] | > 100000 | 130 | 4100 | 290 | 600 | 1700 | 70000 | 5100 | 420 | 370 | 280 | 5300 | 34 | 450 | 1200 | 290 | 4 | 500 | not significantly inhibited | 
NCCN[C@H]1CC[C@H](CC(=O)N[C@H]2Cc3cccc(C(=O)O)c3OB2O)CC1 [Taniborbactam, taniborbactam] |  |  |  |  | 30 |  |  |  |  |  |  |  |  |  |  |  |  |  | not significantly inhibited | IC50 ([20]; ADC-50, crude extract of E. coli TOP10 recombinant strain, mean of triplicate, read-out: IC50): 26000 nM; IC50 ([21]; YRC-1, crude extract of E. coli TOP10 recombinant strain, mean of triplicate, read-out: IC50): 100 nM; IC50 ([22]; MOX-2, crude extract of E. coli TOP10 recombinant strain, mean of triplicate, read-out: IC50): 320 nM; IC50 ([23]; LAT-1, crude extract of E. coli TOP10 recombinant strain, mean of triplicate, read-out: IC50): 230 nM; IC50 ([25]; CMY-42, crude extract of E. coli TOP10 recombinant strain, mean of triplicate, read-out: IC50): 680 nM; IC50 ([26]; read-out: IC50): 60 nM; IC50 ([27]; PDC-1, crude extract of E. coli TOP10 recombinant strain, mean of triplicate, read-out: IC50): 1100 nM; sensitivity of ADC-50 β-lactamase to inhibitor (in words) ([2]; ADC-50 (cAmpC of A. baumannii), susceptibility testing of recombinant E. coli): resistant; IC50 ([29]; ACT-7, crude extract of E. coli TOP10 recombinant strain, mean of triplicate, read-out: IC50): 190 nM; IC50 ([30]; Ear-1, crude extract of E. coli TOP10 recombinant strain, mean of triplicate, read-out: IC50): 110 nM; IC50 ([31]; FOX-5, crude extract of E. coli TOP10 recombinant strain, mean of triplicate, read-out: IC50): 160 nM; IC50 ([32]; PDC-382, crude extract of E. coli TOP10 recombinant strain, mean of triplicate, read-out: IC50): 5 µM; IC50 ([33]; ACC-1, crude extract of E. coli TOP10 recombinant strain, mean of triplicate, read-out: IC50): 180 nM; IC50 ([34]; PDC-5, crude extract of E. coli TOP10 recombinant strain, mean of triplicate, read-out: IC50): 510 nM; IC50 ([35]; read-out: IC50): 210 nM; IC50 ([36]; DHA-1, crude extract of E. coli TOP10 recombinant strain, mean of triplicate, read-out: IC50): 120 nM
